Data from US7714034B2, “Photopolymerizable dental materials with bisacylphosphine oxides as initiators” (Ivoclar Vivadent AG, priority 2006, dated 2010).

Assay: solubility of the photoinitiator
Type: physicochemical
Text: The bisacylphosphine oxides of the formula (I) absorb in the UV region and also show an absorption greater than 400 nm, so that their photolysis and radical formation can be induced by irradiation with halogen lamps customary in the dental field or also with LED lamps. The bisacylphosphine oxides of the formula (I) contain polymerizable groups and can be incorporated into polymers e.g. by copolymerization. Moreover, the bisacylphosphine oxides according to the invention are very well soluble in polar organic solvents such as acetone, ethanol, acetonitrile or tetrahydrofuran (THF) or their mixtures with water, i.e. the solubility is at least 0.01 mmol/g. It is particularly advantageous that the bisacylphosphine oxides according to the invention show a better storage stability compared with known bisacrylphosphine oxides. The compounds are characterized by a high hydrolysis stability, i.e. they are not more than 15% hydrolyzed in a mixture of […]:H2O (60:40) at 42° C. in 60 days.
To prepare the model formulation, 0.022 mmol of the photoinitiator described in Example 1 were weighed into an analysis tube and made up to 1.00 g with the above composition and dissolved accompanied by slight heating. […]

| solubility compared with Irgacure 819 | SMILES | maximum solubility (in the primer composition (DEBAMP/DHPAE/water)) |
| --- | --- | --- |
|  | Cc1cc(C)c(C(=O)P(=O)(C(=O)c2c(C)cc(C)cc2C)c2ccccc2)c(C)c1 [Irgacure819, bis-(2,4,6-trimethylbenzoyl)-phenylphosphine oxide] | ^5Irgacure 819 was used due to its low solubility in a concentration of 0.005 mmol/g (= maximum solubility) |
| better solubility | C=CCOCCOCc1c(C)cc(C)c(C(=O)P(=O)(C(=O)c2c(C)cc(C)c(COCCOCC=C)c2C)c2ccccc2)c1C [BAPOmAOEM] |  |
